Test results: patent US6229055A, “Synthesis of fluorinated xanthene derivatives” (Molecular Probes, Inc., priority 2000, dated 2001)

Assays:
Solubility in water = format: physicochemical
From the text: (§1) In another substrate embodiment, the dye compounds are fluorinated dyes for which R^11 is H, that are substrates for oxidative enzymes and other reactive oxidizing agents, particularly for peroxidase enzymes. […] Unlike their non-fluorinated analogs, fluorinated dihydrofluorescein and dihydrorhodol, are stable in aqueous solutions without the use of blocking groups on the hydroxyl or amine functions that typically reduce aqueous solubility. For example, Compound 84 (4,5,6,7-tetrafluorodihydrofluorescein, Example 85) is soluble in water to at least 2 mM, while existing diacetate fluorogenic peroxidase substrates are typically soluble only in the single-digit μM concentration range.

[1] = Stability toward hydrogen peroxide without peroxidase; format: physicochemical; conditions: absence of horseradish peroxidase, 1 mM substrate, OPD buffer pH 5.5
From the text: as §1
(§2) A 2 mM solution (0.5 mL) of TFDHF is prepared in water. OPD buffer (0.5M Phosphate-citrate buffer) without hydrogen peroxide (pH 5.5, 0.5 mL) is added, resulting in a 1 mM concentration of substrate. Minor background fluorescence, indicating the presence of some contaminating oxidized dye, serves to provide a fluorescence signal at time 0. […] After incubation at room temperature in darkness for 25 minutes, the reaction solution is diluted 1:20 into potassium phosphate buffer at pH 8, and fluorescence emission spectra are recorded.

[2] = target: T1, Horseradish Peroxidase (HRP) (Armoracia rusticana, UniProt P00433); assay: Detection of horseradish peroxidase activity in vitro; format: biochemical; conditions: 1 mM substrate, OPD buffer with hydrogen peroxide, HRP 1 μL, 10^-4 Units
T1 sequence (P00433 31-353): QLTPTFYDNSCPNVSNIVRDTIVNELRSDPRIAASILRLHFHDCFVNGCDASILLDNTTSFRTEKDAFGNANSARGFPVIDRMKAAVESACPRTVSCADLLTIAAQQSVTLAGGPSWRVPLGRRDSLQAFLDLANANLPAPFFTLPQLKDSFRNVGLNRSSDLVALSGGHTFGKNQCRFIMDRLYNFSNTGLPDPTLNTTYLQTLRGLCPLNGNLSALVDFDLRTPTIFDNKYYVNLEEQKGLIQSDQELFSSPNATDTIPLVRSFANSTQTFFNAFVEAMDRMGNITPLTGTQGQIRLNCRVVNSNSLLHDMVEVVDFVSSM
Protocol: as §2, with “OPD buffer (0.5M Phosphate-citrate buffer) without hydrogen peroxide (pH 5.5, 0.5 mL) is added, resulting in a 1 mM concentration of substrate.” left out

[3] = Fluorescence response of heavy metal ion indicator; format: binding; conditions: 1 micromolar compound, 5 micromolar Cu(I), 5 mM MOPS buffer pH 7.2
Protocol: The tetramethyl ester intermediate is then dissolved in 15 mL 1,4-dioxane and concentrated ammonium hydroxide (0.8 mL) is added in one portion. The reaction mixture is centrifuged and the orange pellet is dissolved in 5 mL pure water, then applied to a column of lipophilic SEPHADEX […] resin and eluted with pure water. Pure column fractions are combined, frozen and lyophilized to give phenanthroline conjugate, dipotassium salt (Compound 106) as an orange powder. κ=54,479 cm^-1 M^-1 in 10 mM EGTA, 100 mM KCl, 10 mM MOPS buffer at pH 7.20.

Q: For `O=C(O)c1c(F)c(F)c(F)c(F)c1C1c2ccc(O)cc2Oc2cc(O)ccc21` [Compound 84, 4,5,6,7-tetrafluorodihydrofluorescein], which soluble in water (Solubility in water) is on record?
A: at least 2 mM

Q: And the “reaction with hydrogen peroxide alone” value [1]?
A: stable toward reaction of hydrogen peroxide during the period of analysis

Q: And the “reaction with hydrogen peroxide alone” value ([1]; listed as TFDHF)?
A: no detectable fluorescence increase

Q: What about the “fluorescence production on addition of HRP” value [2] of the same compound?
A: immediate production of bright yellow fluorescence

Q: For `O=C(Nc1cc2cccnc2c2ncccc12)c1ccc2c(c1)C(=O)OC21c2cc(F)c(O)cc2Oc2cc(O)c(F)cc21` [Compound 106], which “decrease in emission intensity at 523 nm” value [3] is on record?
A: 5 fold
